# From patent US20230000813A1, “COMPOUND FOR THE TREATMENT OF BOVINE OR SWINE RESPIRATORY DISEASE” (Intervet Inc., priority 2016, published 2023)
# Legend:
# Test in all cases: MIC, broth-microdilution (CLSI VET01-A4)
# Assay type in all cases: cell-based
# [1] = test system: Mannheimia haemolytica MH 13093 (XB0472-6014.1, BRD field isolate)
# Method: (§1) The Minimum inhibitory concentrations (MIC) of compounds according to the invention for a number of veterinary bacterial pathogens were determined by the broth-microdilution method according to CLSI document VET01-A4.
# (§2) Microdilution trays containing a doubling dilution series of the test compound were used for the tests. The MIC results were interpreted according to the CLSI documents VET01-S3. The lowest concentration of compound at which no visible growth (i.e. no turbidity) detected by the unaided eye was recorded as the MIC.
# [2] = test system: Mannheimia haemolytica MH 10720 (154, BRD field isolate); conditions: Mannheimia haemolytica MH 10720
# Method: as §1, §2
# (§3) The Minimum inhibitory concentrations (MIC) of compounds according to the invention were determined by the broth-microdilution method according to CLSI document VET01-A4.
# (§4) Microdilution trays containing a doubling dilution series of the test compound were used for the tests.
# (§5) The MIC results were interpreted according to the CLSI documents VET01-S3. The lowest concentration of compound at which no visible growth (i.e. no turbidity) detected by the unaided eye was recorded as the MIC.
# [3] = test system: Mannheimia haemolytica MH 12587 (1071, BRD field isolate, macrolide-resistance: erm+, E+); conditions: Mannheimia haemolytica MH 12587, macrolide-resistant
# Method: as §1, §2, §3, §4, §5
# [4] = test system: Mannheimia haemolytica MH 6357 (M7/2, reference strain, cattle infection strain); conditions: Mannheimia haemolytica MH 6357; for MIC: read-out: MIC MH 6357
# Method: as §1, §2, §3, §4, §5
# [5] = test system: Pasteurella multocida PM 6391 (ATCC 43137, reference strain); conditions: Pasteurella multocida PM 6391
# Method: as §1, §2, §3, §4, §5
# [6] = test system: Mannheimia haemolytica MH 6374 (ATCC 33396, reference strain); conditions: Mannheimia haemolytica MH 6374; read-out: MIC MH 6374
# Method: as §1, §2, §3, §4, §5
# [7] = test system: Pasteurella multocida PM 6267 (P 2225 (L386), reference strain, mouse infection strain); conditions: Pasteurella multocida PM 6267
# Method: as §1, §2, §3, §4, §5
# [8] = test system: Pasteurella multocida PM 12080 (IV102277-0093, BRD field isolate); conditions: Pasteurella multocida PM 12080
# Method: as §1, §2, §3, §4, §5
SMILES,MIC [1],MIC MH 10720 [2],MIC MH 12587 [3],MIC [4],MIC PM 6391 [5],MIC [6],MIC PM 6267 [7],MIC PM 12080 [8],MIC MH 6357 [4]
Cc1cnc(CNCc2ccc(C#Cc3ccc(C(=O)N[C@H](C(=O)NO)[C@@H](C)O)cc3)cn2)o1 [Compound 495],1.6 µM,<=0.1 μM,1.6 µM,0.4 µM,<=0.1 μM,1.6 µM,<=0.1 μM,<=0.1 μM,
CC(O)C(NC(=O)c1ccc(C#CC#CC=CCN(C)Cc2ccccc2)cc1)C(=O)NO (stereo not shown) [Compound 452],0.8 µM,,0.8 µM,0.2 µM,<=0.1 μM,0.4 µM,<=0.1 μM,<=0.1 μM,
C[C@@H](O)[C@H](NC(=O)c1ccc(C#Cc2ccc(CNCC(F)(F)F)s2)cc1)C(=O)NO [Compound 477],0.4 µM,<=0.1 μM,0.4 µM,,<=0.1 μM,0.2 µM,<=0.1 μM,<=0.1 μM,<=0.1 μM
CSCCNCc1ccc(C#Cc2ccc(C(=O)N[C@H](C(=O)NO)[C@@H](C)O)cc2)s1 [Compound 482],0.8 µM,<=0.1 μM,0.8 µM,0.2 µM,<=0.1 μM,0.4 µM,<=0.1 μM,<=0.1 μM,
CC(O)C(NC(=O)c1ccc(C#CC#CC=CCN2CCC(c3ccccc3)CC2)cc1)C(=O)NO (stereo not shown) [Compound 448],1.6 µM,<=0.1 μM,1.6 µM,0.8 µM,<=0.1 μM,0.4 µM,<=0.1 μM,<=0.1 μM,
CSCCNCc1ccc(C#Cc2ccc(C(=O)N[C@H](C(=O)NO)[C@@H](C)O)cc2)cc1 [Compound 472],1.6 µM,<=0.1 μM,1.6 µM,0.4 µM,<=0.1 μM,0.8 µM,<=0.1 μM,<=0.1 μM,
C[C@@H](O)[C@H](NC(=O)c1ccc(C#Cc2ccc(CNCc3ccc(F)cc3)cc2)cc1)C(=O)NO [Compound 475],0.8 µM,,0.8 µM,0.2 µM,<=0.1 μM,0.4 µM,<=0.1 μM,<=0.1 μM,
CC(O)C(NC(=O)c1ccc(C#CC#CC=CCNCc2cccnc2)cc1)C(=O)NO (stereo not shown) [Compound 460],1.6 µM,,1.6 µM,0.8 µM,<=0.1 μM,0.8 µM,<=0.1 μM,<=0.1 μM,
C#CCNCc1ccc(C#Cc2ccc(C(=O)N[C@H](C(=O)NO)[C@@H](C)O)cc2)s1 [Compound 479],0.8 µM,<=0.1 μM,0.8 µM,,<=0.1 μM,0.2 µM,<=0.1 μM,<=0.1 μM,<=0.1 μM
CC(O)C(NC(=O)c1ccc(C#CC#CC=CCNC2CC2)cc1)C(=O)NO (stereo not shown) [Compound 444],1.6 µM,<=0.1 μM,1.6 µM,0.4 µM,<=0.1 μM,0.8 µM,<=0.1 μM,<=0.1 μM,
Cc1cnc(CNCc2ccc(C#Cc3ccc(C(=O)N[C@H](C(=O)NO)[C@@H](C)O)cc3)s2)o1 [Compound 484],0.8 µM,<=0.1 μM,0.8 µM,0.2 µM,<=0.1 μM,0.4 µM,<=0.1 μM,<=0.1 μM,
